The values below come from ChEMBL document CHEMBL1201862, “PubChem BioAssay data set” (2004).

Calls of active or inactive are those of the source. Where only a bound is given, the exact number is not on record here.

Test [1] can be described thus: cytotoxicity toward DRD oncogenic fibroblasts, dose response, cell-based, non-viral oncogenic, luminescence (AID 1934). To be noted: Homo sapiens. It counts as functional.
Test [2] is described as follows: Intein inhibitors as potential Tuberculosis drugs, a cytotoxicity screen. [Related pubchem assays (depositor defined):AID2221, AID2223, AID434968, AID435010, AID449749, AID449750, AID489010]. It counts as functional.
Test [3] can be described thus: nonselective inhibitors of cellular cAMP signaling, dose response, counter-screen for MC4R biased antagonist project, cell-based, TR-FRET cAMP detection (AID 602305).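 Further: U2OS cells stimulated with forskolin near its EC80 as the cAMP inducer; potency is for inhibition of forskolin-stimulated cAMP signaling.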 The test is classed as functional. Background: A counterscreen serves to expose hits that act by an unwanted route or on another target.
For another test, the target named is T1, Caspase-3 (Homo sapiens, UniProt P42574).
T1 sequence (P42574 whole entry): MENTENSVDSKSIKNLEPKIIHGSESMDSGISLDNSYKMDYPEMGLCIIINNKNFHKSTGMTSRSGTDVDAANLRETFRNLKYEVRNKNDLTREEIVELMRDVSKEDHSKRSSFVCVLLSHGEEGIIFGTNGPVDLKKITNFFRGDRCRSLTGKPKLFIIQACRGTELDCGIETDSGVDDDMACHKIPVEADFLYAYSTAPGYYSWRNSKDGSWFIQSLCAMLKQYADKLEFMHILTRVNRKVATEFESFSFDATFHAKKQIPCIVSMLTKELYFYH
Briefly: SAR Analysis of small molecule inhibitors of Sentrin-specific proteases (SENPs) using a Caspase-3 Selectivity assay. [Related pubchem assays (depositor defined):AID2540, AID2599, AID434973, AID489001]. It counts as functional.

Test [4] addresses T2, Sentrin-specific protease 7 (Homo sapiens, UniProt Q9BQF6).
T2 sequence (Q9BQF6 whole entry): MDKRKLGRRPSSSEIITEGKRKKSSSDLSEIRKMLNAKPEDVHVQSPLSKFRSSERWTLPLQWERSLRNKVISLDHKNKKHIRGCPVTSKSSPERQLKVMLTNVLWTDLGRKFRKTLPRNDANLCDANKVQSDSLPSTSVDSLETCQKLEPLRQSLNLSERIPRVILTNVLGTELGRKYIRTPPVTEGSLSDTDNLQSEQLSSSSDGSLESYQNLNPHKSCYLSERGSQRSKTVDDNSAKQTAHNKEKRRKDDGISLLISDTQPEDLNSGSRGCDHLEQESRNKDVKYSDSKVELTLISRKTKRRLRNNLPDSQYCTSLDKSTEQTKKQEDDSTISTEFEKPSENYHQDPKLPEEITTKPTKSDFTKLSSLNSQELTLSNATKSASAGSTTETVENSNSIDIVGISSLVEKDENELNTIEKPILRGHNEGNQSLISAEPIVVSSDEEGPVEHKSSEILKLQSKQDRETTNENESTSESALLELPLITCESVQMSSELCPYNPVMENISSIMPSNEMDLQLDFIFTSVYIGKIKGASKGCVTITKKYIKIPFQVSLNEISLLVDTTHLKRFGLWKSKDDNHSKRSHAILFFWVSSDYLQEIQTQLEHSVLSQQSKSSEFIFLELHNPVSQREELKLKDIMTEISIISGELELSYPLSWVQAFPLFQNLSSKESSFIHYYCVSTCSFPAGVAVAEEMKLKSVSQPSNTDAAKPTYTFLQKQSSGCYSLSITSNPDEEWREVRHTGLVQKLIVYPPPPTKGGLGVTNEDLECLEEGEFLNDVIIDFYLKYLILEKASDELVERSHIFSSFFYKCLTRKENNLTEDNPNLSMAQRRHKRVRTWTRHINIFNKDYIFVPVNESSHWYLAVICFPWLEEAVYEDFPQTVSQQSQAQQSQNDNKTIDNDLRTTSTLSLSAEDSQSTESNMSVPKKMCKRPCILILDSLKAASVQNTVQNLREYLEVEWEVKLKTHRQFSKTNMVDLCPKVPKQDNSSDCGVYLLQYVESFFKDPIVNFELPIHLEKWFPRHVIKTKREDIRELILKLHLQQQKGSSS
Briefly: SENP7 protease inhibitors, SAR follow-up, biochemical, luminescence, set 2 (AID 588600). It counts as functional.

The target of test [5] is Glucose-6-phosphate 1-dehydrogenase (Homo sapiens, UniProt P11413). The experiment in a line: human G6PD enzyme inhibitors, dose response, selectivity assay for P. falciparum G6PD inhibitor project, biochemical, fluorescence (AID 504792). It counts as functional.
Chain of Glucose-6-phosphate 1-dehydrogenase (P11413 whole entry): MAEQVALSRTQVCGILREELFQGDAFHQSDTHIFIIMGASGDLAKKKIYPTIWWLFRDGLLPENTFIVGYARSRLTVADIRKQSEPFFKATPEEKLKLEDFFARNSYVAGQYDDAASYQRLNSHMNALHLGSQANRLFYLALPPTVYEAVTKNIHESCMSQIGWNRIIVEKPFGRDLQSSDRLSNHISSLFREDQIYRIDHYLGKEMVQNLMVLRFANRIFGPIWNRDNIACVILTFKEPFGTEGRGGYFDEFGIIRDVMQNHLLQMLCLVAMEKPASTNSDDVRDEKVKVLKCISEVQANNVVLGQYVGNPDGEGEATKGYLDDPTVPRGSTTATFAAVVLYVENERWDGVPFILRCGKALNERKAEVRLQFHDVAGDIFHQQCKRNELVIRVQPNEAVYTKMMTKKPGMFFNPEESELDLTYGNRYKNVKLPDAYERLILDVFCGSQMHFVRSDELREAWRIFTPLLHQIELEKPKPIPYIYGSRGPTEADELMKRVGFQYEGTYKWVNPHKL
Another test has as its target Genome polyprotein (dengue virus type 2, UniProt P29990). The experiment in a line: Dengue-2 NS5 methyltransferase inhibitors, primary screen, biochemical, confirmation dose response (AID 588689). The test is classed as functional.
Another test deals with T3, Caspase-6 (Homo sapiens, UniProt P55212).
T3 sequence (P55212 whole entry): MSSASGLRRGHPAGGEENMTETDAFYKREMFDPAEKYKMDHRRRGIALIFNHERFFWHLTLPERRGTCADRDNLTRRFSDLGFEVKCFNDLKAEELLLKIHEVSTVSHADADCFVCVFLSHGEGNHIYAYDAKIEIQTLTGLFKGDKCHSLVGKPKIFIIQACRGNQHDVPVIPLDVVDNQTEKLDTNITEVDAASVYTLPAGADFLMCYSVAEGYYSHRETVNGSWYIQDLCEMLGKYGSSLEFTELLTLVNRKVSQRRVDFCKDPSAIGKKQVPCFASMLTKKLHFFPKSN
The experiment in a line: human caspase-6 inhibitors, dose response, biochemical, VEID-R110 fluorescence, cherry-pick (AID 720632).
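Wherever CC50 is given: cells exposed to compound for 72 hours before luminescence readout.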

Chain of Genome polyprotein (P29990 2492-3391 limits assumed): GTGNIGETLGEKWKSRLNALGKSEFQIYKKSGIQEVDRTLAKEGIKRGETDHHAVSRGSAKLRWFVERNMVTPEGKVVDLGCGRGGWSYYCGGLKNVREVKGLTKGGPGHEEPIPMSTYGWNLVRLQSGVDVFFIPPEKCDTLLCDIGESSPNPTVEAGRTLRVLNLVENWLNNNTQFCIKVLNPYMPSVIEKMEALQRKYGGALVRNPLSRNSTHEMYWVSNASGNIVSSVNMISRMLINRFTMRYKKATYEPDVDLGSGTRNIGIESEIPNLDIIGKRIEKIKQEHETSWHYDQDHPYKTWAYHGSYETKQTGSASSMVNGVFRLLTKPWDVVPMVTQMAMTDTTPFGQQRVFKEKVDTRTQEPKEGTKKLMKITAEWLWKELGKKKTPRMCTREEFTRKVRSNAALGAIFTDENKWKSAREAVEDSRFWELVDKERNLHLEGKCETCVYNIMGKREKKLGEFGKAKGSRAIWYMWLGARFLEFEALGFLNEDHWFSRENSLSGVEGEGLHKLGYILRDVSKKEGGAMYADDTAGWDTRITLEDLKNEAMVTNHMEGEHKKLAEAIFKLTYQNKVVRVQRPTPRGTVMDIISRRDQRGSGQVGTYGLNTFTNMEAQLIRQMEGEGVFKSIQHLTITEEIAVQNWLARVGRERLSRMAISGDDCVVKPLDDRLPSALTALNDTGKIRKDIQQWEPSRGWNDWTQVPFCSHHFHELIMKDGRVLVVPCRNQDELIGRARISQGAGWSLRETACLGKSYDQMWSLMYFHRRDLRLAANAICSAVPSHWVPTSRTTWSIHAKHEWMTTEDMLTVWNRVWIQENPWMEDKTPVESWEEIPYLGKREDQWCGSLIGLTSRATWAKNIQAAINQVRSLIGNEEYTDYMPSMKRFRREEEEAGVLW

Turning to `Cc1nn(-c2ccccc2)c(Cl)c1CN(C(=O)CCl)c1ccc(Cl)cc1`, the EC50 in test [1] is 1.92 µM (active). Also, the CC50 in test [2] was 2.06 µM (active). In addition, the IC50 in test [3] is > 64.6 µM (inactive).

Consider `Oc1ccccc1/C=C/c1noc(-c2ccccc2O)n1`, for which the IC50 on Caspase-3 was 21 µM (active); in test [4] it was 43.8 µM (active).

Consider `O=C(O)CSc1cc(NS(=O)(=O)c2ccc(Cl)cc2)c2ccccc2c1O`, for which the figures for the IC50 (in test [5]; at Genome polyprotein) were 29.9 µM (inactive) and 7.15 µM (active), respectively.

Take `COc1ccccc1N1C(=O)Cc2ccccc2C1=O`: the AC50 at Caspase-6 is 24.2 µM (active).

Usually EC50 stands for the concentration at which the effect is half-maximal. Broadly, the CC50 is the concentration that lowers cell viability or growth by half. For orientation: IC50 means the concentration that gives 50% inhibition. One may read the AC50 as the concentration giving half of the maximal activity seen.
